≈ marks a conversion by molar mass, not a printed value.
Columns and labels:
[1] = target: E. coli RNAP βH526P (Escherichia coli, UniProt P0A8V2, H526P); assay type: biochemical; conditions: at 2.5 mg/mL; mutation at βH526
[2] = system: methicillin-resistant Staphylococcus aureus (MRSA); assay: Agar dilution MIC
[3] = target: E. coli RNAP βR143A (Escherichia coli, UniProt P0A8V2, R143A); assay type: biochemical; conditions: βR143A RNAP against wild-type RNAP
[4] = target: wild-type E. coli RNAP (Escherichia coli, UniProt P0A8V2); assay: In vitro transcription on T7A1 promoter template; assay type: biochemical; conditions: transcription started with ATP, in the absence of the CpA primer
[5] = target: E. coli RNAP βH526Y (Escherichia coli, UniProt P0A8V2, H526Y); assay type: biochemical; conditions: at 2.5 mg/mL; mutation at βH526
[6] = target: E. coli RNAP βH526R (Escherichia coli, UniProt P0A8V2, H526R); assay type: biochemical; conditions: at 2.5 mg/mL; mutation at βH526
[7] = target: M. smegmatis RNAP (Mycolicibacterium smegmatis, UniProt P60281); assay: In vitro transcription on T7A1 promoter template; assay type: biochemical; conditions: performed as with E. coli RNAP, started with ATP

CO[C@H]1/C=C/O[C@@]2(C)Oc3c(C)c(O)c4c(O)c(c(/C=N/N5CCN(C)CC5)c(O)c4c3C2=O)NC(=O)/C(C)=C\C=C\[C@H](C)[C@H](O)[C@@H](C)[C@@H](O)[C@@H](C)[C@H](OC(C)=O)[C@@H]1C [RIF, rifampicin]
inhibition of RNAP [1]: no inhibition | MIC ([2]; S. aureus Bel 97597): 2 µg/mL (≈ 2.43 µM) | MIC ([2]; S. aureus Bel 97598): > 128 µg/mL | MIC ([2]; S. aureus Fin 54511): > 128 µg/mL | MIC ([2]; S. aureus Fin 54518): > 128 µg/mL | effect of the βR143A mutation on sensitivity [3]: little effect | formation of the triphosphorylated trinucleotide, pppApUpC [4]: allowed some of its production | inhibition of formation of the first dinucleotide, pppApU [4]: 3 fold | inhibition of RNAP [5]: no inhibition | inhibition of RNAP [6]: no inhibition | synthesis of the trinucleotide (pppApUpC) [7]: partly allowed

— paper PMC6202310 (Molecular Cell, 2018)
